Measured values as given in PubChem BioAssay (NCI).
Values joined by “and” are separate entries in the source; they are usually repeats but may differ in a detail not shown here. Equal values may be shown once.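 Cultured in 96-well plates, cells were exposed to test compound for 48 hours across five concentrations. GI50: concentration for 50% inhibition of growth. The concentration for full growth arrest is given as TGI.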

Key:
Assay in all cases: inhibition of tumour cell growth, NCI panel, 48 h
SF-268 CNS = system: SF-268 CNS
OVCAR-8 ovarian = system: OVCAR-8 ovarian
NCI/ADR-RES ovarian = system: NCI/ADR-RES ovarian
HL-60(TB) leukemia = system: HL-60(TB) leukemia
EKVX NSCLC = system: EKVX NSCLC
SNB-75 CNS = system: SNB-75 CNS
NCI-H23 lung = system: NCI-H23 lung
IGROV1 ovarian = system: IGROV1 ovarian
HOP-62 NSCLC = system: HOP-62 NSCLC
OVCAR-3 ovarian = system: OVCAR-3 ovarian

Structure (SMILES) | TGI (SF-268 CNS) | TGI (OVCAR-8 ovarian) | TGI (NCI/ADR-RES ovarian) | TGI (HL-60(TB) leukemia) | TGI (EKVX NSCLC) | TGI (SNB-75 CNS) | TGI (NCI-H23 lung) | TGI (IGROV1 ovarian) | TGI (HOP-62 NSCLC) | TGI (OVCAR-3 ovarian) | GI50 (SF-268 CNS) | GI50 (OVCAR-8 ovarian) | GI50 (NCI/ADR-RES ovarian) | GI50 (HL-60(TB) leukemia) | GI50 (SNB-75 CNS) | GI50 (NCI-H23 lung) | GI50 (IGROV1 ovarian) | GI50 (HOP-62 NSCLC) | GI50 (OVCAR-3 ovarian) | GI50 (EKVX NSCLC)
COc1ccc(C(=O)C(CC2C(=O)CC(C)(C)C(C(=O)C(=O)Nc3c(C)cccc3C)C2=O)c2ccc(OC)cc2)cc1 (stereo not given) | > 100 µM | > 100 µM | > 100 µM | > 100 µM | > 100 µM | > 100 µM | > 100 µM | > 100 µM | > 100 µM | > 100 µM | – | – | – | – | – | – | – | – | – | –
COc1ccc(OC)c(-c2cc(C(=O)O)c3cc4ccccc4cc3n2)c1 | > 100 µM | > 100 µM | > 100 µM | > 100 µM | > 100 µM | > 100 µM | > 100 µM | > 100 µM | > 100 µM | > 100 µM | – | – | – | – | – | – | – | – | – | –
O=C1CCCC(=O)C1C(=O)c1ccc(C(F)(F)F)cc1[N+](=O)[O-] | > 100 µM | > 100 µM | > 100 µM | > 100 µM | – | > 100 µM | > 100 µM | > 100 µM | > 100 µM | > 100 µM | > 100 µM | > 100 µM | > 100 µM | > 100 µM | > 100 µM | > 100 µM | > 100 µM | > 100000 nM | > 100 µM | –
CN1CCN(CCCOc2ccc3nc(Nc4ccc(C(F)(F)F)c(Cl)c4)ccc3c2)CC1 | 3.43 µM | 4.64 µM | 5.22 µM | 4.01 µM | 3.63 µM | 2.94 µM | 3 µM | 5.3 µM | 3.18 µM | 3.46 µM | 1.66 µM | 2.07 µM | 1.88 µM | 1.94 µM | 0.903 µM | 1.47 µM | 2.33 µM | 1630 nM | 1.64 µM | 1.74 µM
O=C1C(Cl)=C(Nc2ccccn2)C(=O)c2ccccc21 | 7.55 µM | 13 µM | 17.2 µM | 5.83 µM | 49.4 µM | 4.49 µM | 7.4 µM | 8.05 µM | 6.15 µM | 3.98 µM | 2.74 µM | 3.25 µM | 3.23 µM | 2.52 µM | 2 µM | 2.18 µM | 3.04 µM | 2570 nM | 1.86 µM | 17.2 µM
CC(=O)OC1CC(C)c2c(Cl)ncnc21 (stereo not given) | > 100 µM | > 100 µM | > 100 µM | > 100 µM | – | > 100 µM | > 100 µM | > 100 µM | > 100 µM | > 100 µM | > 100 µM | > 100 µM | > 100 µM | > 100 µM | > 100 µM | > 100 µM | > 100 µM | > 100000 nM | > 100 µM | –
COc1cc(CCNc2nc3cc(N)cc(N)c3nc2-c2ccccc2)cc(OC)c1 | 3.72 µM | – | 6.3 µM | 3.33 µM | 3.4 µM | 2.85 µM | 3.58 µM | 7.98 µM | 9.35 µM | 2.35 µM | 1.74 µM | – | 2.61 µM | 1.25 µM | 1.37 µM | 1.59 µM | 2.52 µM | 2950 nM | 1.08 µM | 1.8 µM
Cc1ccc(C(CC(=O)c2ccccc2)C(C(=O)c2ccccc2)C(c2ccc(C)cc2)C2C(=O)NC(=S)NC2=O)cc1 (stereo not given) | > 50 µM | > 50 µM | > 50 µM | > 50 µM | > 50 µM | > 50 µM | > 50 µM | > 50 µM | > 50 µM | > 50 µM | 16.8 µM | 16.9 µM | 8.05 µM | 18.7 µM | > 50 µM | 15.1 µM | 19.2 µM | > 50000 nM | 19 µM | 19.5 µM
COc1ccc(CCN2COc3ccc4ccc(=O)oc4c3C2)cc1OC | > 100 µM | > 100 µM | > 100 µM | 41.7 µM | > 100 µM | > 100 µM | > 100 µM | > 100 µM | > 100 µM | > 100 µM | – | – | – | – | – | – | – | – | – | –
C=CCCC(O)c1ccc(CCCCCCCCCCC)o1 (stereo not given) | 43.9 µM | 35.6 µM | 35.5 µM | > 100 µM | 32.9 µM | 28.6 µM | 40.6 µM | 32 µM | 32.2 µM | 35.9 µM | 19.3 µM | 18.3 µM | 18.9 µM | 39.2 µM | 14.2 µM | 19.3 µM | 16.5 µM | 17300 nM | 16.1 µM | 18.2 µM
CN1CCN(CCCN2c3ccccc3Sc3ccc(C(F)(F)F)cc32)CC1 | 14.3 µM and 25.4 µM and 26.2 µM | 3.36 µM and 33.4 µM and 30.5 µM | 4.61 µM and 25 µM and 25.5 µM | 4.92 µM and 17.7 µM and 22.7 µM | 10.8 µM and 27.9 µM and 28.3 µM | 22.7 µM and 16.8 µM and 20.8 µM | 14.1 µM and 26.7 µM and 27.7 µM | 4.98 µM and 11.9 µM and 23 µM | 3.94 µM and 24.9 µM and 26.5 µM | 3.76 µM and 20.4 µM and 27 µM | 3.72 µM | 1.7 µM | 1.91 µM | 2.78 µM | 6.4 µM | 3.29 µM | 2.19 µM and 3.77 µM and 9.9 µM | 1730 nM | 1.93 µM and 6.26 µM and 13.8 µM | 2.34 µM
C=C(CN(C)C)C(=O)c1ccc(OC)cc1 | 50.5 µM | 3.17 µM | 34.2 µM | 0.631 µM | 44.8 µM | 39.9 µM | 22.2 µM | 22 µM | 51.9 µM | 10.4 µM | – | – | – | – | – | – | – | – | – | –
O=[N+]([O-])c1ccc(NN=C2c3ccccc3Cc3ccccc32)c([N+](=O)[O-])c1 | > 100 µM | > 100 µM | > 100 µM | > 30 µM | > 100 µM | 75.1 µM | > 100 µM | > 100 µM | > 100 µM | 5.19 µM | – | – | – | – | – | – | – | – | – | –
[O]=[W](=[O])([OH])[OH] | > 100 µM | > 100 µM | > 100 µM | > 100 µM | – | > 100 µM | > 100 µM | > 100 µM | – | > 100 µM | > 100 µM | > 100 µM | > 100 µM | > 100 µM | > 100 µM | > 100 µM | > 100 µM | – | > 100 µM | –
CCCN(CCC)c1ccc(/C=N/NC(=O)c2cccnc2)cc1 | > 100 µM | > 100 µM | > 100 µM | 63.7 µM | > 100 µM | 68.1 µM | > 100 µM | > 100 µM | > 100 µM | 45.3 µM | 31.2 µM | 31.3 µM | 18 µM | 22.6 µM | 22 µM | 36.1 µM | 46.8 µM | 37900 nM | 20.1 µM | 26.8 µM
